Reference: patent US20200370076A1, “USE OF GALACTURONATE AND OR GALACTURONATE POLYMERS IN CONJUNCTION WITH CARBOHYDRATES TO CONTROL METABOLIC STATE OF ORGANISMS” (Department of the Army, U.S. Army CCDC Army Research …, priority 2019, published 2020)

Tests used:
[1] = test system: Clostridium acetobutylicum; experiment: Fermentation product formation by Clostridium acetobutylicum grown on different substrates; assay type: cell-based; conditions: organism grown on the named substrate
Protocol: Experimentally, mixtures of any of galacturonate and galacturonate polymers with glucose are fed to Clostridium acetobutylicum. It was observed that the organism co-utilized the substrates. […] Bacterial culture conditions and strains have been previously published. […] Clostridium acetobutylicum strain ATCC 824 was obtained from ATCC and cultured using company protocol at 37° C. into Clostridial growth medium or CGM containing 0.75 g KH2PO4, 0.75 g K2HPO4, 1.0 g NaCl, 0.017 g MnSO4.5H2O, 0.70 g MgSO4.7H2O, 0.01 g FeSO4.7H2O, 2.0 g […], 5.0 g yeast extract, 2.0 g (NH4)2SO4, and 0.5% final concentration of desired carbohydrate-D-glucose, D-galacturonic acid, D-gluconic acid-at pH 6.5. Active cultures from initial growth stock were added to potato glucose medium to be maintained and stored as a spore solution. Potato glucose medium or PGM contains per liter of H2O-150 g grated fresh potato, 10 g D-glucose, 0.5 g (NH4)SO4, and 3 g CaCO3. The medium was boiled for 1 hour and strained through gauze before sterilization and use for culture. Spore solution was activated for culturing through a heat shock at 80° C. for 9 minutes. Shocked spore solution was added to CGM containing the feed stock of choice and grown to late log of 0.8 at optical density of 600 nm (OD600) at 37° C. Theses cultures were then used to perform antibiotic sensitivity experiments.

[2] = test system: Clostridium acetobutylicum; experiment: Substrate concentration over time during co-fed fermentation (FIG. 4); assay type: cell-based
Text: FIG. 4 is a graph illustrating the uptake of individual oxidized sugars mixed for co-feeding during a fermentation process of Clostridial acetobutylicum; FIG. 4, with reference to FIGS. 1 through 3, is a graph illustrating the concentration of various feedstock during a fermentation process. […] The co-utilization of any of galacturonate and galacturonate polymers with glucose could be used to control the metabolic state of the cells by altering the production of reduced electron carriers such as NADH and/or NADPH. This can allow for fine-tuning production of chemicals. The overall trend of the concentration over time shown in FIG. 4 for galacturonic (gal) acid and glucose (glu) is generally the same; i.e., a gradual decrease in the concentration over time. For example, the concentration of the galacturonic acid is approximately 7.5 at time 0 with a gradual decline in concentration to approximately 4 at approximately 3 hours, followed by a greater decline in concentration resulting in a 0 concentration at approximately 7 hours.

O=C[C@H](O)[C@@H](O)[C@@H](O)[C@H](O)C(=O)O [galacturonate, D-galacturonic acid]
acetate produced [1]: approximately 23.6 mM
butyrate produced [1]: approximately 0.6 mM
concentration of feedstock during fermentation ([2]; FIG. 4, approximately 3 hours): approximately 4
concentration of feedstock during fermentation ([2]; FIG. 4, approximately 7 hours): 0
concentration of feedstock during fermentation ([2]; FIG. 4, glucose/galacturonate co-feeding, time 0): approximately 7.5
